Results: PMC6268642, “Facile Synthesis and Herbicidal Evaluation of 4H-3,1-Benzoxazin-4-ones and 3H-Quinazolin-4-ones with 2-Phenoxymethyl Substituents” (Molecules, 2012)
Read-outs that look alike come from different tables or passages of the source.

Experiments:
rape Brassica napus = assay: Petri dish culture, growth inhibition of root and stalk of rape; type: in vivo; settings: 5 days; for inhibition at 1 µg/mL / inhibition at 10 µg/mL: Brassica napus, 120 h
Description: (§1) The synthesized compounds were tested for the herbicidal activity on model plants including a monocotyledon (barnyard grass) and a dicotyledon (rape) by the reported Petri dish culture method. The percent inhibitory ratios against the growth of root and stalk of barnyard grass and rape at different dosage concentrations were calculated, and the compounds with appreciable inhibitory potencies are selected and shown in Table 1 and Table 2. Several features of the inhibitory activities can be derived. First, all the compounds have stronger inhibition against the growth of the dicotyledon rape than against the monocotyledon barnyard grass, showing appreciable selectivity.
(§2) The herbicidal activity was examined for the growth inhibition effect of the dicotyledon rape Brassica napus and the monocotyledon barnyard grass Echinochloa crusgalli, using the standard Petri dish test and the pre-emergence treatment procedure. […] Nine mL of the solution was added in a Petri dish of 9 cm diameter and two pieces of filter paper were placed on the dish bottom. Twenty seeds each of rape and barnyard grass were placed on the filter paper. The covered Petri dish was transferred into an artificial climate incubator (MGC-400H, Shantou Keyi Co., Ltd., China), where the conditions were controlled at temperature 23 ± 1 °C, humidity 60 ± 5%, light intensity 10 Klux, and photoperiod 12 h/day. The incubation was continued for 5 days, then the lengths of 10 roots and 10 stems for each type of plant were measured and the mean values were calculated. The percent inhibitory ratios were calculated relative to control plants exposing to distilled water instead of the compound solution.

[1] = tested on: barnyard grass Echinochloa crusgalli; assay: Petri dish culture, growth inhibition of root and stalk of barnyard grass; type: in vivo; settings: 5 days; for inhibition at 1 µg/mL / inhibition at 10 µg/mL: Echinochloa crus-galli, 120 h
Description: as §1, §2

[2] = 1 mg/L, root growth, read-out: Relative inhibition, root
[3] = 1 mg/L, stalk growth, read-out: Relative inhibition, stalk
[4] = 10 mg/L, root growth, read-out: Relative inhibition, root
[5] = 10 mg/L, stalk growth, read-out: Relative inhibition, stalk

Row | Compound | inhibition at 1 µg/mL (rape Brassica napus; [2]) [%] | inhibition at 1 µg/mL (rape Brassica napus; [3]) [%] | inhibition at 10 µg/mL (rape Brassica napus; [4]) [%] | inhibition at 10 µg/mL (rape Brassica napus; [5]) [%] | inhibition at 1 µg/mL [1, 2] [%] | inhibition at 1 µg/mL [1, 3] [%] | inhibition at 10 µg/mL [1, 4] [%] | inhibition at 10 µg/mL [1, 5] [%] | melting point [°C] | Relative inhibition, root (rape Brassica napus; 1 mg/L, root growth) [%] | Relative inhibition, stalk (rape Brassica napus; 1 mg/L, stalk growth) [%] | Relative inhibition, root (rape Brassica napus; 10 mg/L, root growth) [%] | Relative inhibition, stalk (rape Brassica napus; 10 mg/L, stalk growth) [%] | Relative inhibition, root ([1]; 1 mg/L, root growth) [%] | Relative inhibition, stalk ([1]; 1 mg/L, stalk growth) [%] | Relative inhibition, root ([1]; 10 mg/L, root growth) [%] | Relative inhibition, stalk ([1]; 10 mg/L, stalk growth) [%]
1 | Nn1c(COc2ccc(Cl)cc2Cl)nc2cccc(Cl)c2c1=O [4g, 3-Amino-5-chloro-2-((2,4-dichlorophenoxy)methyl)-3H-quinazolin-4-one] | 5.7 | 10 | 17.5 | 44.9 | 11.8 | -5.9 | 25.8 | -1.8 | 201.5 to 202 | – | – | – | – | – | – | – | –
2 | COc1cc2nc(COc3ccc(Cl)cc3)n(N)c(=O)c2cc1OC [4e, 3-Amino-2-((4-chlorophenoxy)methyl)-6,7-dimethoxy-3H-quinazolin-4-one] | 21.9 | 1.5 | 30.8 | 6.4 | 13.8 | 2.9 | 23.3 | 11.9 | 202.8 to 204.1 | – | – | – | – | – | – | – | –
3 | Nn1c(COc2ccc(Cl)cc2Cl)nc2ccc(Cl)cc2c1=O [4h, 3-Amino-6-chloro-2-((2,4-dichlorophenoxy)methyl)-3H-quinazolin-4-one] | 7.5 | 10.7 | 22 | 19.9 | 20 | -42 | 37.5 | -12.7 | 223.6 to 224.9 | – | – | – | – | – | – | – | –
4 | O=c1oc(COc2ccc(Cl)cc2)nc2cc(Cl)ccc12 [3j, 7-Chloro-2-((4-chlorophenoxy)methyl)-4H-3,1-benzoxazin-4-one] | 91.4 | 59.5 | 100 | 91.1 | 43.6 | 12.8 | 92.3 | 31.1 | 189.9 to 191.8 | – | – | – | – | – | – | – | –
5 | O=c1oc(COc2ccc(F)cc2)nc2ccccc12 [3r, 2-((4-Fluorophenoxy)methyl)-4H-3,1-benzoxazin-4-one] | 81.4 | 55.3 | 99.6 | 87 | 62.6 | 42.8 | 96.8 | 57.8 | 112.5 to 114.6 | – | – | – | – | – | – | – | –
6 | Cc1ccc2nc(COc3ccccc3)oc(=O)c2c1 [3e, 6-Methyl-2-(phenoxymethyl)-4H-3,1-benzoxazin-4-one] | 55.3 | 11.6 | 92.3 | 81.6 | 26.1 | -17.2 | 71.4 | 31.1 | 133.3 to 135.1 | – | – | – | – | – | – | – | –
7 | 7-Chloro-2-((2,4-dichlorophenoxy)methyl)-3-methyl-3H-quinazolin-4-one [4r] | – | – | – | – | – | – | – | – | – | 32.3 | −8.8 | 44.5 | −2.4 | 12.3 | 1.4 | 34.6 | 0.0
8 | O=c1oc(COc2ccccc2)nc2cc(Cl)ccc12 [3d, 7-Chloro-2-(phenoxymethyl)-4H-3,1-benzoxazin-4-one] | 75.5 | 44.9 | 93.5 | 71.6 | 41.9 | -23.6 | 62.3 | 28.3 | 117.3 to 119.9 | – | – | – | – | – | – | – | –
9 | Nn1c(COc2ccc(Cl)cc2)nc2ccc(Cl)cc2c1=O [4b, 3-Amino-6-chloro-2-((4-chlorophenoxy)methyl)-3H-quinazolin-4-one] | 27.7 | 14.7 | 46.8 | 13.2 | 33.2 | 20.9 | 9.9 | 11.9 | 178.1 to 179.4 | – | – | – | – | – | – | – | –
10 | O=c1oc(COc2ccc(F)cc2)nc2cc(Cl)ccc12 [3u, 7-Chloro-2-((4-fluorophenoxy)methyl)-4H-3,1-benzoxazin-4-one] | 92.7 | 65.2 | 99 | 92.2 | 61.8 | -7.3 | 96.7 | 39 | 123.6 to 124.9 | – | – | – | – | – | – | – | –
11 | Cn1c(COc2ccc(Cl)cc2)nc2ccc(Cl)cc2c1=O [4l, 6-Chloro-2-((4-chlorophenoxy)methyl)-3-methyl-3H-quinazolin-4-one] | 28.5 | 1.5 | 42.2 | 10.8 | 24.7 | 8.9 | 33.7 | 11.9 | 179.9 to 181.2 | – | – | – | – | – | – | – | –
12 | O=c1oc(COc2ccccc2)nc2cccc(Cl)c12 [3b, 5-Chloro-2-(phenoxymethyl)-4H-3,1-benzoxazin-4-one] | 59.6 | 39.2 | 83.3 | 51.9 | 47.2 | 0.5 | 56.3 | 24.1 | 118.3 to 120.9 | – | – | – | – | – | – | – | –
13 | Cn1c(COc2ccc(Cl)cc2Cl)nc2ccc(Cl)cc2c1=O [4q, 6-Chloro-2-((2,4-dichlorophenoxy)methyl)-3-methyl-3H-quinazolin-4-one] | 8.1 | 14.4 | 19.3 | 38.9 | 24.3 | 5.4 | 31.9 | -3.6 | 240.1 to 241.8 | – | – | – | – | – | – | – | –
14 | Nn1c(COc2ccc(Cl)cc2)nc2cccc(Cl)c2c1=O [4a, 3-Amino-5-chloro-2-((4-chlorophenoxy)methyl)-3H-quinazolin-4-one] | 28.5 | 13.2 | 41.5 | -5.9 | 57.9 | 8.9 | 43.1 | 14.9 | 191.8 to 193.3 | – | – | – | – | – | – | – | –
15 | COc1cc2nc(COc3ccccc3)oc(=O)c2cc1OC [3f, 6,7-Dimethoxy-2-(phenoxymethyl)-4H-3,1-benzoxazin-4-one] | 94.9 | 32.9 | 71.1 | 63.3 | 35.5 | 32 | 63 | 46.7 | 132.1 to 134.3 | – | – | – | – | – | – | – | –
